What was measured:
RAW264.7 cells [1] = assay: iNOS and TREM-2 expression by western blot in RAW264.7 cells under M1-type differentiation (LPS/IFN-γ); assay type: cell-based, mouse; details: RAW264.7 cells treated with LPS/IFN-γ (M1-type condition)
Experimental: (§1) Sodium dodecyl sulfate-polyacrylamide gel electrophoresis (SDS-PAGE) was performed using a gel electrophoresis apparatus (Mighty Small SE 250, Hoefer Scientific Instruments, San Francisco, USA) according to the Laemmli's protocol. A dissolved fraction of cells was diluted in a sample dilution buffer [63 mM Tris (pH.6.8), 10% glycerol, 2% SDS, 0.0013% bromophenol blue, 5% β-mercaptoethanol) and electrophoresed in an electrode buffer (containing Tris (15 g), glycerin (72 g), and SDS (5 g) in 1L solution) using 8%- and 10% gels. Upon completion of gel electrophoresis, the gel was transferred onto a nitrocellulose membrane at 40 mAmps for 3 hours in a transfer buffer solution (25 mM Tris, 192 mM glycerin, 20% v/v methanol (pH 8.3)). Each of anti-TREM-2, anti-arginase-1, anti-iNOS, anti-α-SMA, and anti-collagen-1a1, as primary antibodies, was reacted on the nitrocellulose membrane, respectively, and horseradish peroxidase-conjugated goat anti-rabbit IgG and horseradish peroxidase-conjugated goat anti-mouse IgG, as secondary antibodies, were reacted thereonto for 1 hour, and the nitrocellulose membrane was allowed to develop colors using the ECL detection system (ECL chemiluminescence system, Amersham, Gaithesberg, Mass., USA). The identity of protein contents in a sample was confirmed using anti-β-actin antibody and anti-lamin A/C. With respect to the change in the amount of protein expression, the coloration intensity was induced using a densitometry and the scanning of the densitometry was performed using the Image Scan & Analysis System, Alpha-Innotech Co. (USA). In each lane, the intensities were calculated using the AlphaEase™ version 5.5 software by subtracting background intensities.
In order to confirm whether gold-containing agents can induce the transformation into M2-type macrophages, the RAW264.7 cells, which is a mouse macrophage cell line, were treated with lipopolysaccharide (LPS)/interferon-gamma (IFN-γ), followed by treatment with auranofin in a condition for differentiation into M1-type macrophages, and the increase/decrease in expressions of iNOS and TREM-2 was confirmed by western blot analysis.
First, the RAW264.7 cells, which is a mouse macrophage cell line, were respectively treated with sodium aurothiomalate and aurothioglucose, which are analogous to auranofin, in a condition for differentiating the cells into M1-type macrophages by treating with lipopolysaccharide (LPS)/interferon-gamma (IFN-gamma), and the increase/decrease in expression of iNOS was confirmed by western blot analysis.

MEF cells = assay: α-SMA expression by western blot in MEF cells treated with medium of auranofin-treated RAW264.7 cells; assay type: cell-based, mouse; details: MEF cells treated with medium from treated RAW264.7 cells
Experimental: as §1, with “The identity of protein contents in a sample was confirmed using anti-β-actin antibody and anti-lamin A/C. With respect to the change in the amount of protein expression, the coloration intensity was induced using a densitometry and the scanning of the densitometry was performed using the Image Scan & Analysis System, Alpha-Innotech Co. (USA).” left out, “intensities. […]” for “intensities.”

[2] = test system: carbon tetrachloride-induced liver fibrosis; assay: Mouse model with carbon tetrachloride-induced liver fibrosis: fibrosis scores, α-SMA and collagen-1a1 in liver tissue; assay type: in vivo, C57BL/6J mice; details: 5 times a week for 3 weeks, CCl4 mouse model
Experimental: A mouse model with carbon tetrachloride-induced liver fibrosis was prepared by repeatedly administering 0.5 ml/kg of carbon tetrachloride to C57BL/6J mice twice a week for three weeks.
as §1, with “The identity of protein contents in a sample was confirmed using anti-β-actin antibody and anti-lamin A/C. With respect to the change in the amount of protein expression, the coloration intensity was induced using a densitometry and the scanning of the densitometry was performed using the Image Scan & Analysis System, Alpha-Innotech Co. (USA).” left out
In the case of liver tissue, a certain amount of liver tissue was homogenized in a mortar along with liquid nitrogen and a cell lysis buffer, transferred into a new tube, and vortexed. The resultant was centrifuged at 14,000 rpm and 4° C. for 20 minutes and the middle layer was collected therefrom and the protein amount was quantitated by Bradford assay. After subjecting 30 μg of the protein to electrophoresis by SDS-PAGE, the change in the expression of α-SMA protein was measured by western blot analysis. […]

RAW264.7 cells [3] = assay: Arginase-1 expression by western blot in RAW264.7 cells under M2-type differentiation (IL-4); assay type: cell-based, mouse; details: RAW264.7 cells treated with IL-4 (M2-type condition)
Experimental: as §1, with “The identity of protein contents in a sample was confirmed using anti-β-actin antibody and anti-lamin A/C. With respect to the change in the amount of protein expression, the coloration intensity was induced using a densitometry and the scanning of the densitometry was performed using the Image Scan & Analysis System, Alpha-Innotech Co. (USA).” left out, “intensities. […]” for “intensities.”

SMILES	expression of TREM-2 (RAW264.7 cells [1])	expression of iNOS (RAW264.7 cells [1])	expression of α-SMA (MEF cells)	liver fibrosis scores ([2]; 10 mg/kg oral, H&E staining)	expression of collagen-1a1 in liver tissue ([2]; oral 1, 3 and 10 mg/kg)	expression of α-SMA in liver tissue ([2]; oral 1, 3 and 10 mg/kg)	expression of arginase-1 (RAW264.7 cells [3])
CC[PH](CC)(CC)[Au][S][C@@H]1O[C@H](COC(C)=O)[C@@H](OC(C)=O)[C@H](OC(C)=O)[C@H]1OC(C)=O [auranofin, 2,3,4,6-tetra-O-acetyl-1-thio-β-D-glucopyranosato-S-[triethylphosphine] gold]	increasing	inhibited	inhibited	significantly lowered	apparently reduced	apparently reduced	
OC[C@H]1O[C@H]([S-])[C@H](O)[C@@H](O)[C@@H]1O.[Au+] [aurothioglucose]		inhibited					increased
O=C([O-])CC([S-])C(=O)[O-].[Au+].[Na+].[Na+] (stereo not shown) [sodium aurothiomalate]		inhibited					increased

Reference: patent US10639320B2, “Pharmaceutical composition comprising gold-containing agent for preventing or treating liver fibrosis or liver cirrhosis” (KOREA UNITED PHARM. INC., priority 2014, dated 2020)
